These results are taken from patent US5639950A, “Nucleotide sequence encoding for bifunctional enzyme for proline production” (The Ohio State University Research Foundation, priority 1994, dated 1997).

Assay [1] deals with mutant E. coli gamma-GK encoded by the proB74 allele (Escherichia coli, UniProt P0A7B5, D107N). Conditions: proB74 mutant form of the bacterial enzyme. As for the experimental part: (§1) FIG. 3 is a graph illustrating feedback inhibition of delta^1 -pyrroline-5-carboxylate synthetase by proline. Ammonium sulfate-fractionated extracts from E. coli CSH26 (.circle-solid.), E. coli CSH26 harboring PVAB2 (.smallcircle.), the proB74 allele (.orgate.), and the wild-type proB allele (.quadrature.) were assayed for gamma-GK activity by the method of Hayzer and Leisinger, J. Gen. Microbiol., 118, 1980, pp. 287-293.
(§2) P5CS has GSA dehydrogenase and gamma-GK activities, and the gamma-GK activity is feedback inhibited by proline. To confirm that the presently claimed sequence, PVAB2 of FIGS. 1A, 1B, 1C and 1D, encoded P5CS activity, ammonium sulfate-fractionated extracts of E. coli CSH26 and CSH26 harboring PVAB2 were assayed for GSA dehydrogenase-dependent gamma-GK enzyme activity. […] Because proline production is regulated by end-product inhibition of gamma-GK in bacteria, the plant enzyme P5CS was similarly subjected to feed-back control testing. […] The mutation responsible for the resistance to end-product inhibition of the gamma-GK in the proB 74 allele involves a substitution of an A for a G nucleotide, resulting in a change from aspartic acid to asparagine residue at position 107.
E. coli CSH26 cells and CSH26 harboring different plasmids were grown aerobically at 37° C. for about 16 hours. […]

Assay [2] has as its target Vigna aconitifolia delta1-pyrroline-5-carboxylate synthetase (P5CS) (Vigna aconitifolia, UniProt P32296). Kind of assay: biochemical. As for the experimental part: as §1, §2
(§3) E. coli CSH26 cells and CSH26 harboring different plasmids were grown aerobically at 37° C. for about 16 hours. The cells were harvested by centrifugation at 4,000× g for 10 minutes, and the cell paste resulting was suspended in 4 ml of buffer A (50 mM Tris-Hcl, 1 mM dithiothreitol) at […] Following sonication, (Benson Sonifier, Type 450) at 50 watts, the slurry was centrifuged at 4,000× g for 10 minutes and the supernatant fractionated by ammonium sulfate precipitation. For E. coli CSH26 containing PVAB2, the fraction precipitating between 0 and 30% saturation of ammonium sulfate was used for enzyme assay.

The test system of assay [3] is wild-type E. coli gamma-GK. In words: biochemical. Conditions: more sensitive than Vigna enzyme. As to the method:
as §1, §2, §3

Assay [4] addresses T1, wild-type E. coli gamma-GK (Escherichia coli, UniProt P0A7B5).
T1 construct: made in house; host or cells: E. coli CSH26 harboring the wild-type proB allele (plasmid pDU1 from A. Dandekar); ammonium sulfate fraction 40-60%
In words: biochemical. As to the method:
as §1, §2, §3

The structures appear in SMILES notation.

T1 sequence (P0A7B5 whole entry): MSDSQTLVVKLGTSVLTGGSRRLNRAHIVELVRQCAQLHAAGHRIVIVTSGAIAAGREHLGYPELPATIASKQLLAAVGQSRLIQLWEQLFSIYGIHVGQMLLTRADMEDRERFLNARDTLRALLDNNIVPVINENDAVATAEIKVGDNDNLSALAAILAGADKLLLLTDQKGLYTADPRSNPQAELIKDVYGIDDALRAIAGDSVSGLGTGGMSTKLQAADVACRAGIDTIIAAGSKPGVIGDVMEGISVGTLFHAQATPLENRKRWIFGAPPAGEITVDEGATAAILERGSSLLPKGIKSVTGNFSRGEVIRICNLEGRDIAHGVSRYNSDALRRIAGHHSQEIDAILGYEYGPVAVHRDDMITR
Sequence of mutant E. coli gamma-GK encoded by the proB74 allele (P0A7B5 whole entry D107N): as the sequence (P0A7B5 whole entry) above, with D107N counted along it
Sequence of Vigna aconitifolia delta1-pyrroline-5-carboxylate synthetase (P5CS) (P32296 whole entry): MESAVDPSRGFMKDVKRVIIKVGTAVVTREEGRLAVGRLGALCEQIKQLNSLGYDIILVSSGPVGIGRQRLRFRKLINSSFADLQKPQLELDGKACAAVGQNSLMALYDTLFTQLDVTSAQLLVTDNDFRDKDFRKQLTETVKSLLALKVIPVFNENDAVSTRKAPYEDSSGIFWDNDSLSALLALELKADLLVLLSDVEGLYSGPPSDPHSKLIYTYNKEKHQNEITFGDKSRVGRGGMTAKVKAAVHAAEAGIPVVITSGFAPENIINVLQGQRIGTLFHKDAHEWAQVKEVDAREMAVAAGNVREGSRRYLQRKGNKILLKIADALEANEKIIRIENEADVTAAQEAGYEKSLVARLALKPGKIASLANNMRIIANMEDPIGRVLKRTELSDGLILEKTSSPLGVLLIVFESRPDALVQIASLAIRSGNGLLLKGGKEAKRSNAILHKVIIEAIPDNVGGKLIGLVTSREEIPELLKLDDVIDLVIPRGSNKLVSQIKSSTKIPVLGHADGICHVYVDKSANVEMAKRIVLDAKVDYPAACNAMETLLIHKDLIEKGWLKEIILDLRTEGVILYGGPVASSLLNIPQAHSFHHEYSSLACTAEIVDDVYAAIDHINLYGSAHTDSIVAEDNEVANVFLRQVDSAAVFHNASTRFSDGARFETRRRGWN

Broadly, the IC50 is the concentration at which inhibition is half-maximal. Regarding `O=C(O)[C@@H]1CCCN1` [proline], the “sensitivity to end product (proline) inhibition, fold less sensitive” value in assay [1] is “approximately 200 fold”. Further, the half-inhibitory concentration (IC50) came to 6 mM in assay [2] and 0.2 mM in assay [4]. In addition, the “sensitivity to proline of wild-type E. coli gamma-GK relative to the Vigna enzyme” value in assay [3] stood at 30 times.
